Results from patent publication US6455528B1, “Piperazine compounds and medicinal use thereof” (Mitsubishi Pharma Corporation, priority 1997, dated 2002).
Structures can show the parent of a compound that is named as a salt.

Tests used:
IL-10 production = experiment: Effect on IL-10 production in mice (in vivo), LPS-induced; details: serum IL-10 90 min after LPS 500 μg/kg i.p.; test compound orally 30 min before LPS; ratio relative to test compound non-administration group
Protocol: (§1) Since the TNF-α concentration in serum reaches a peak at 90 min after LPS administration, the TNF-α concentration in the serum at this point was measured using FACTOR TEST mTNF-α (manufactured by Genzyme) and the IL-10 concentration at the same point of time was also measured using Murine IL-10 ELISA Kit (manufactured by Endogen). […] The effect of the test compound on the TNF-α production and IL-10 production was calculated by the following formula as the ratio relative to the test compound non-administration group.

TNF-α production = experiment: Effect on TNF-α production in mice (in vivo), LPS-induced; details: serum TNF-α 90 min after LPS 500 μg/kg i.p.; test compound orally 30 min before LPS; ratio relative to test compound non-administration group
Protocol: as §1

| Structure (SMILES) | melting point | IL-10 production (%) (IL-10 production) | TNF-α production (%) (TNF-α production) |
| --- | --- | --- | --- |
| CC(=O)NC(C)c1ccc(CN2CCN(c3ccc(F)cc3)CC2)cc1 (centres unmarked) [Example 48, N-(1-(4-((4-(4-Fluorophenyl)piperazin-1-yl)methyl)phenyl)ethyl)acetamide] | 101 to 103 °C | 888% | 12% |
| CC(=O)NCc1ccc(CN2CCN(c3nccs3)CC2)cc1 [Example 81, N-(4-((4-(Thiazol-2-yl)piperazin-1-yl)methyl)phenylmethyl)acetamide Hydrochloride 1/2 Hydrate] | – | 1035% | 11% |
| CC(=O)NC(C)c1ccc(CN2CCN(c3ccccc3)CC2)cc1 (centres unmarked) [Example 58, N-(1-(4-((4-Phenylpiperazin-1-yl)methyl)phenyl)ethyl)acetamide Dihydrochloride 1/4 Hydrate] | – | 499% | 19% |
| CC(=O)NCc1ccc(CN2CCN(c3ccc(F)cc3)CC2)cc1[N+](=O)[O-] [Example 23, N-(4-((4-(4-Fluorophenyl)piperazin-1-yl)methyl)-2-nitrophenylmethyl)acetamide] | 112 to 114 °C | – | – |
| CC(=O)NCc1ccc(CN2CCN(c3ccc(Cl)cc3)CC2)cc1 [Example 11, N-(4-((4-(4-Chlorophenyl)piperazin-1-yl)methyl)phenylmethyl)acetamide] | 180.5 to 182 °C | – | – |

Second part, led by results:

| melting point | Structure (SMILES) | IL-10 production (%) (IL-10 production) | TNF-α production (%) (TNF-α production) |
| --- | --- | --- | --- |
| 100 to 101 °C | CC(=O)NCc1ccc(CN2CCN(c3ccccn3)CC2)cc1 [Example 82, N-(4-((4-(Pyridin-2-yl)piperazin-1-yl)methyl)phenylmethyl)acetamide] | 742% | 11% |
| 104.5 to 106 °C | CC(=O)NC(C)(C)c1ccc(CN2CCN(c3ccc(F)cc3)CC2)cc1 [Example 51, N-(1-Methyl-1-(4-((4-(4-fluorophenyl)-piperazin-1-yl)methyl)phenyl)ethyl)acetamide] | 533% | 16% |
| 120 to 121 °C | CC(=O)NCc1ccc(CN2CCN(c3ncccn3)CC2)cc1 [Example 72, N-(4-((4-(Pyrimidin-2-yl)piperazin-1-yl)methyl)phenylmethyl)acetamide] | 510% | 20% |
| 114 to 115 °C | CC(=O)N[C@H](C)c1ccc(CN2CCN(c3ccc(F)cc3)CC2)cc1 [Example 122, (R)-N-(1-(4-((4-(4-fluorophenyl)piperazin-1-yl)methyl)phenyl)ethyl)acetamide] | – | – |
| 122 to 124 °C | CC(=O)NCc1ccc(CN2CCN(c3nccc(Cl)n3)CC2)cc1 [Example 97, N-(4-((4-(4-chloropyrimidin-2-yl)piperazin-1-yl)methyl)phenylmethyl)acetamide] | – | – |
